Data as given in ChEMBL document CHEMBL3882731, “Novel sulfonaminoquinoline Hepcidin antagonists” (2014).

What follows are molecules tested against T1, Ferroportin (Homo sapiens, UniProt Q9NP59) (assay: Antagonist activity at C-terminal halo-tag fused human ferroportin expressed in MDCK cells assessed as inhibition of hepcidin-induced ferroportin internalization after overnight incubation by Draq5 staining-based fluorescence assay).
T1 sequence (Q9NP59 whole entry): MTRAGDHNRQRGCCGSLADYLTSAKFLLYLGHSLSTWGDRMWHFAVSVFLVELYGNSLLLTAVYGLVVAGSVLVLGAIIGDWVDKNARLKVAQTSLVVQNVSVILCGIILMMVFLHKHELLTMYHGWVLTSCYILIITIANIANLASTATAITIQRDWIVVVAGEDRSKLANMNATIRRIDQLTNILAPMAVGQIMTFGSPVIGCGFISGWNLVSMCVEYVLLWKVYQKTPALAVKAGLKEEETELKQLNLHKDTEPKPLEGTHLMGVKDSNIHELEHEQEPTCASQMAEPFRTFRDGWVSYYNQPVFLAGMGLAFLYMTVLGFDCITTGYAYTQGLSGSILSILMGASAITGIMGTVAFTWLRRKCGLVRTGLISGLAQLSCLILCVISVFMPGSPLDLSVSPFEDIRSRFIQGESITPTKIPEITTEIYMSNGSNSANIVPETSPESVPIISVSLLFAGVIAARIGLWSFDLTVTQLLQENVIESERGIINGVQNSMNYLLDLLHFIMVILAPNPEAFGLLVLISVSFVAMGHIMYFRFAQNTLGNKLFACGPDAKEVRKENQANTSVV
Type: cell-based

| SMILES | IC50 |
| --- | --- |
| O=S(=O)(Nc1cccc2cccnc12)c1c(Cl)cccc1Cl | 100 µM |
| Cc1ccc2ccc3c(c2n1)NS(=O)(=O)c1ccccc1-3 | 100 µM |
| CCOc1cc(NS(=O)(=O)c2ccccc2)c2ncccc2c1 | 100 µM |
| CCc1ccc2cccnc2c1NS(=O)(=O)c1ccccc1 | 100 µM |
| COc1ccnc2c(NS(=O)(=O)c3ccccc3)cccc12 | 100 µM |
| O=S(=O)(Nc1cccc2ccc(Cl)nc12)c1ccccc1 | 100 µM |
| COc1cc(NS(=O)(=O)Nc2c(F)cccc2F)c2ncccc2c1 | 100 µM |
| COc1ccc(S(=O)(=O)Nc2cccc3ccc(C)nc23)c(N)c1 | 100 µM |
| O=S(=O)(Nc1cc(Cl)cc2cccnc12)c1ccccc1 | 100 µM |
| CC(=O)Nc1cc(C(F)(F)F)ccc1S(=O)(=O)Nc1cccc2cccnc12 | 100 µM |
| CC(C)c1ccc2cccnc2c1NS(=O)(=O)c1ccccc1 | 100 µM |
| COc1ccccc1S(=O)(=O)Nc1cccc2cccnc12 | 100 µM |
| COc1cc2cccnc2c2c1-c1ccccc1S(=O)(=O)N2 | 100 µM |
| Cc1ccccc1S(=O)(=O)Nc1cccc2cccnc12 | 100 µM |
| Cc1c(Cl)cccc1NS(=O)(=O)Nc1ccc(Cl)c2cccnc12 | 100 µM |
| COc1cc(NS(=O)(=O)c2ccc(Cl)cc2Cl)c2ncccc2c1 | 100 µM |
| Cc1ccc(S(=O)(=O)Nc2cccc3cc(C)cnc23)c(N)c1 | 100 µM |
| Cc1cccc(Cl)c1S(=O)(=O)Nc1cccc2cccnc12 | 100 µM |
| Cc1cc(C)c(S(=O)(=O)Nc2c(Cl)cc(Cl)c3cccnc23)c(C)c1 | 100 µM |
| O=S(=O)(Nc1c(O)ccc2cccnc12)c1ccccc1 | 100 µM |
| Cc1cc(NS(=O)(=O)c2ccccc2)c2ncccc2c1C | 100 µM |
| O=[N+]([O-])c1cc(C(F)(F)F)ccc1S(=O)(=O)Nc1cccc2cccnc12 | 100 µM |

More lines, now with the values ahead:

| IC50 | SMILES |
| --- | --- |
| 100 µM | Cc1ccc2cccc(NS(=O)(=O)c3ccccc3)c2n1 |
| 100 µM | Cc1ccc2cccc(NS(=O)(=O)c3ccccc3N)c2n1 |
| 100 µM | COc1ccc(S(=O)(=O)Nc2cccc3cccnc23)c(N)c1 |
| 100 µM | COc1ccc(S(=O)(=O)Nc2cccc3cccnc23)cc1 |
| 100 µM | Cc1cc(NS(=O)(=O)c2ccccc2)c2ncccc2c1Cl |
| 100 µM | COc1ccnc2c3c(ccc12)-c1ccccc1S(=O)(=O)N3 |
| 100 µM | O=S(=O)(Nc1c(Cl)ccc2cccnc12)c1ccccc1 |
| 100 µM | COc1cc(NS(=O)(=O)Nc2cccc(Cl)c2C)c2ncccc2c1 |
| 100 µM | O=S(=O)(Nc1ccc(Br)c2cccnc12)c1ccccc1 |
| 100 µM | Cc1cnc2c(NS(=O)(=O)c3ccc(Cl)cc3Cl)cccc2c1 |
| 100 µM | Nc1cc(C(F)(F)F)ccc1S(=O)(=O)Nc1ccc(Cl)c2cccnc12 |
| 100 µM | COc1ccc2cccnc2c1NS(=O)(=O)c1ccccc1 |
| 100 µM | O=S(=O)(Nc1ccc(Cl)c2cccnc12)c1ccc(Cl)cc1Cl |
| 100 µM | Cc1ccc2cccnc2c1NS(=O)(=O)c1ccccc1 |
| 100 µM | CN1c2c(ccc3cccnc23)-c2ccccc2S1(=O)=O |
| 50 µM | COC(=O)c1ccnc2c(NS(=O)(=O)c3ccccc3)cccc12 |
